Assay results: patent US11136325B2, “Pyrrolopyrimidine and pyrrolopyridine derivatives” (GALAPAGOS NV, priority 2017, dated 2021)
Entries after “also recorded” stand apart in the source; their conditions may differ.

Experiments:
[1] = test system: CFA induced hypersensitivity in rat; experiment: CFA induced hypersensitivity in rat assessed using weight bearing method; type: in vivo; conditions: 10 mg/kg, 24 hours post CFA, 1, 2 and 4 hours post treatment
From the text: Intraplantar injection of Complete Freunds adjuvant (CFA) causes an inflammatory reaction which induces hypersensitivity and oedema, and mimics some aspects of clinical inflammatory pain. These effects can be investigated using equipment to measure weight bearing and plethysmometer.
Naive rats distribute their body weight equally between the two hind paws. However, when the injected (left) hind paw is inflamed and/or painful, the weight is re-distributed so that less weight is put on the affected paw (decrease in weight bearing on injured paw). Weight bearing through each hind limb was measured using a rat incapacitance tester (Linton Instruments, UK).
Rats were placed in the incapacitance tester with the hind paws on separate sensors and the average force exerted by both hind limbs was recorded over 4 seconds.
Base line weight bearing and paw volume readings were taken and hypersensitivity was induced via injection of CFA (Baseline weight bearing and paw volume recordings were taken prior to induction of insult. Inflammatory hypersensitivity was induced by intraplantar injection of CFA (100 μL of 1 mg/mL solution) intraplantar to the rats left hind paw.
Animals (Male, Sprague Dawley Rats (Charles River, UK), 212-260 g) were ranked and randomised to treatment groups according to the weight bearing CFA window in a Latin square design. […]

[2] = test system: MIA induced hyperalgesia in the rat; experiment: MIA induced hyperalgesia in the rat, in vivo chronic pain model (weight bearing); conditions: 10 mg/kg p.o. daily day 3 to day 16, vs vehicle
From the text: Intra-articular administration of Monosodium Iodoacetate (MIA) in the ipsilateral knee of Sprague Dawley rats leads to development of a robust and long-lasting hyperalgesia and allodynia associated initially with an inflammatory response.
Naive rats distribute their body weight equally between the two hind paws. However, when the injected (left) hind knee is inflamed and/or painful, the weight is re-distributed so that less weight is put on the affected limb (decrease in weight bearing on injured limb). Weight bearing through each hind limb is measured using a rat incapacitance tester (Linton Instruments, UK).
Osteoarthritis (OA) in rats ((Sprague Dawley, male, groups of 10) was induced via injection of MIA solution (Sigma, 12512), 25 μL of 80 mg/mL, (2 mg) into the knee joint of the left hind leg. Weight bearing was assessed on Days 3, 5, 7, 9, 12 & 16, following injection of MIA, for development of chronic pain. At Day 3 weight bearing measurements were taken and animals were ranked and randomised to treatment groups according to their MIA window in a Latin square design. […]
Weight bearing (g) readings were taken for both right and left hind paws and the difference calculated. Data are expressed as % ratio ipsilateral/contralateral ((WB left/WB right)*100) (mean±s.e.m.)
Calculation: Ipsilateral reading/contralateral reading x 100. […]

[3] = test system: CDAHFD diet-induced NASH in C57/BL6 mice; experiment: Diet-induced (CDAHFD) mouse model of non-alcoholic steatohepatitis (NASH); type: in vivo; conditions: mouse liver
From the text: This model uses a choline-deficient, L-amino acid-defined, high-fat diet (CDAHFD) consisting of 60 kcal % fat and 0.1% methionine to induce NASH.
C57/BL6 mice (Charles River) are divided into groups as set out below, the mice are 8 weeks (>20 grs) at the initiation of the induction phase.
• CDAHFD; Research Diets Inc., Ref. No. A06071302 • Control diet: normal diet (VRF 1, P), Special Diets Services
In order to induce a non-alcoholic steatohepatitis (NASH), animals will be fed with choline-deficient, L-amino acid-defined, high-fat diet (CDAHFD).
Mice were randomly assigned to a treatment group and treated according to schedule presented in the Table above until the evaluation phase.
Steady state PK sampling—Blood will be collected in K2-EDTA tubes to generate plasma. All blood samples will be processed for plasma by centrifugation (5,000 rpm for 10 minutes at 4° C.) within 30 minutes of collection. Plasma from each blood sample will be quickly frozen in liquid nitrogen and stored in a freezer maintained at −80° C. until analysis.
Final blood sample—Blood will be collected in tubes for serum preparation containing protease inhibitors. All blood samples will be processed by centrifugation (3,500 rpm for 15 minutes at 4° C.). Aliquots of obtained serum samples will be stored frozen at −80° C. until further analysis.
Tissue samples: The liver is harvested and portions of the left lateral lobe are stored for RNA gene expression analysis, TG assay, sectioned for OH proline measurement, and the rest placed in 10% formalin for histopathological evaluation. Histopathological evaluation includes sections stained with Sirius red to evaluate extent of fibrosis, and sections stained with F4/80 to assess macrophage accumulation.
A panel of 6 fibrosis genes (Col1A1, Timp1, Pai1, CTGF, TGFβ and Acta2), inflammation genes (TNFα, IL10 and CCL2) and 2 house keeping genes are used for gene expression analysis.

Cc1c[nH]c2ncnc(N3CCC(NC(=O)c4cc(N)ncc4F)CC3)c12 [Compound 1, 2-amino-5-fluoro-N-[1-(5-methyl-7H-pyrrolo[2,3-d]pyrimidin-4-yl)-4-piperidyl]pyridine-4-carboxamide]
hypersensitivity response (weight bearing) [1]: significantly inhibited | reversal of hypersensitivity (weight bearing) [2]: significant and marked reversal; also recorded: significant reversal when compared to vehicle at each time point | F4/80 quantification ([3]; day 73, 15 mg/kg/BID): significant effect | Sirius red fibrosis quantification ([3]; day 73, 15 mg/kg/QD and 15 mg/kg/BID): significant effect | expression levels of Pai1 (fibrosis gene panel) ([3]; day 73, at least the highest doses tested (5 mg/kg/QD, 15 mg/kg/QD, 15 mg/kg/BID p.o.), vs CDAHFD diet+vehicle): significant effect | expression levels of TGF (fibrosis gene panel) ([3]; day 73, at least the highest doses tested, vs CDAHFD diet+vehicle): significant effect
